Data on 26 compounds can be found in patent US10047105B2, “Gyrase inhibitors” (Merck Sharp & Dohme Corp., priority 2009, dated 2018).

Experiment [1] has as its system S. aureus ATCC 13709. Put plainly: MIC, antibacterial potency, S. aureus. In kind it is cell-based.
The test system of experiment [2] is S. pneumoniae ATCC 51916. Put plainly: MIC, S. pneumoniae. In kind it is cell-based.
Where [3] appears, read: S. pneumoniae (Spn52), in µg/mL.

The structures appear in SMILES notation. Values after ≈ are worked out from the molar mass of the structure shown.

Compound `CCc1[nH]c2nc(Oc3cncc(F)c3)nc(Oc3cncc(F)c3)c2c1Cl.O=C(O)C(F)(F)F` [700,477] showed an MIC, SA in experiment [1] (S. aureus) of 1 µg/mL. The compound also registered an MIC Spn52 in experiment [2] (S. pneumoniae) of 16 µg/mL.

`CCc1[nH]c2nc(Sc3cnc4nccnc4c3)nc(N3CCC4CNCC43)c2c1Cl.O=C(O)C(F)(F)F` (stereo not shown) [700,564] showed an MIC, SA in experiment [1] (S. aureus) of 8 µg/mL. The same compound came in with an MIC Spn52 in experiment [2] (S. pneumoniae) of 16 µg/mL.

As for `CCc1[nH]c2nc(Sc3ccc4c(NCC(C)O)ncnc4c3)nc(N3CCC(N)C3)c2c1Cl` (stereo not shown) [700,575], the MIC, SA in experiment [1] (S. aureus) came to 8 µg/mL (≈ 16 µM). Also, in experiment [2] (S. pneumoniae), the MIC Spn52 was determined as 16 µg/mL (≈ 32.1 µM).

With `CCc1[nH]c2nc(Sc3cnc4nccnc4c3)nc(OC3CNC3)c2c1Br` [700,481], the MIC, SA in experiment [1] (S. aureus) turned out to be 8 µg/mL (≈ 17.5 µM). In experiment [2] (S. pneumoniae), this compound displayed an MIC Spn52 of 2 µg/mL (≈ 4.36 µM).

With `CCc1[nH]c2nc(Sc3cnc4[nH]c(C(F)(F)F)nc4c3)nc(N3CC[C@@H](N)C3)c2c1Cl` [700,696], in experiment [1] (S. aureus), the MIC, SA is greater than 64 µg/mL. The MIC Spn52 in experiment [2] (S. pneumoniae) came to 16 µg/mL (≈ 33.1 µM).

`CCc1[nH]c2nc(Sc3cnc4nccnc4c3)nc(N3CCC(N4CCOCC4)C3)c2c1Cl` (stereo not shown) [700,429]: the MIC, SA in experiment [1] (S. aureus) is no more than 0.5 µg/mL. Also, the MIC Spn52 in experiment [2] (S. pneumoniae) amounted to 2 µg/mL (≈ 4.02 µM).

In experiment [1] (S. aureus), `CCc1[nH]c2nc(Oc3cccnc3)nc(Oc3cncnc3)c2c1Br.O=C(O)C(F)(F)F` [700,621] returned an MIC, SA of 4 µg/mL. This compound yielded an MIC Spn52 in experiment [2] (S. pneumoniae) of 8 µg/mL.

The compound `CCc1[nH]c2nc(Sc3cnc4ncc(=O)[nH]c4c3)nc(N3CC[C@@H](N)C3)c2c1Cl` [700,712] came in with an MIC, SA in experiment [1] (S. aureus) of 8 µg/mL (≈ 18.1 µM). Further, the MIC Spn52 in experiment [2] (S. pneumoniae) is greater than 64 µg/mL.

As to `CCOc1nc(Nc2ccc3nccnc3c2)nc2[nH]c(CC)c(Br)c12.O=C(O)C(F)(F)F` [700,443], the MIC, SA in experiment [1] (S. aureus) is greater than 64 µg/mL. The compound also had an MIC Spn52 in experiment [2] (S. pneumoniae) greater than 64 µg/mL.

As for `CCc1[nH]c2nc(Nc3cnc4nccnc4c3)nc(N3CC(O)C3)c2c1Cl.O=C(O)C(F)(F)F` [700,573], the MIC, SA in experiment [1] (S. aureus) was greater than 64 µg/mL. For the same compound, the MIC Spn52 in experiment [2] (S. pneumoniae) was greater than 64 µg/mL.

Turning to `CCc1[nH]c2nc(Sc3cnc4nccnc4c3)nc(N3CCC(N4CCN(C)CC4)C3)c2c1Cl.O=C(O)C(F)(F)F.O=C(O)C(F)(F)F` (stereo not shown) [700,700], the MIC, SA in experiment [1] (S. aureus) worked out at 4 µg/mL. The MIC Spn52 in experiment [2] (S. pneumoniae) was 8 µg/mL.

`CCc1[nH]c2nc(Sc3ccc4nnc(C(=O)NC[C@H](C)O)nc4c3)nc(N3CC(N)C3)c2c1Cl` [700,611] displayed an MIC, SA in experiment [1] (S. aureus) of 2 µg/mL (≈ 3.89 µM). Besides, the MIC Spn52 in experiment [2] (S. pneumoniae) turned out to be 8 µg/mL (≈ 15.6 µM).

In the case of `C=Cc1nc(Oc2cccc(C#N)c2)nc2[nH]c(CC)c(Cl)c12` [700,831], in experiment [1] (S. aureus (SA), in µg/mL), the “MIC, SA” value is given as 2. Also, in experiment [2] (setting [3]), the “MIC Spn52” value came to 4.

In experiment [1] (S. aureus), `CCc1[nH]c2nc(Sc3cnc4nccnc4c3)nc(N3CCN(CCN)CC3)c2c1Cl.O=C(O)C(F)(F)F` [700,444] yielded an MIC, SA of 4 µg/mL. Besides, the MIC Spn52 in experiment [2] (S. pneumoniae) was found to be 8 µg/mL.

Take `CCOc1nc(Nc2cnc3ccccc3c2)nc2[nH]c(CC)c(Br)c12.O=C(O)C(F)(F)F` [700,363]: the MIC, SA in experiment [1] (S. aureus) is greater than 64 µg/mL. The compound also gave an MIC Spn52 in experiment [2] (S. pneumoniae) greater than 64 µg/mL.

As for `CCc1[nH]c2nc(Sc3ccc4nnc(C(=O)NCCCN5CCN(C)CC5)nc4c3)nc(N3CC[C@@H](N)C3)c2c1Cl` [700,619], the MIC, SA in experiment [1] (S. aureus) was 32 µg/mL (≈ 52.4 µM). Moreover, the MIC Spn52 in experiment [2] (S. pneumoniae) turned out to be 32 µg/mL (≈ 52.4 µM).

`CCOc1nc(Nc2cc(OC)c(OC)c(OC)c2Br)nc2[nH]c(CC)c(Br)c12.O=C(O)C(F)(F)F` [700,389] registered an MIC, SA in experiment [1] (S. aureus) greater than 64 µg/mL. Moreover, the MIC Spn52 in experiment [2] (S. pneumoniae) is greater than 64 µg/mL.

`CCc1[nH]c2nc(Sc3cnc4c(N)nc(N)nc4c3)nc(N(C)CCNC)c2c1Cl.O=C(O)C(F)(F)F.O=C(O)C(F)(F)F` [700,472]: in experiment [1] (S. aureus), the MIC, SA is 64 µg/mL. The same compound had an MIC Spn52 in experiment [2] (S. pneumoniae) of 64 µg/mL.

In the case of `CCc1[nH]c2nc(Sc3cncnc3)nc(N3CC4C(N)C4C3)c2c1Cl` (stereo not shown) [700,784], the MIC, SA in experiment [1] (S. aureus) was 2 µg/mL (≈ 5.16 µM). This compound also returned an MIC Spn52 in experiment [2] (S. pneumoniae) of 8 µg/mL (≈ 20.6 µM).

In the case of `CCc1[nH]c2nc(Sc3cnc4nccnc4c3)nc(N3CC(NC(=O)COn4nnc5ccccc54)C3)c2c1Cl` [700,506], the MIC, SA in experiment [1] (S. aureus) was no more than 0.5 µg/mL. Besides, in experiment [2] (S. pneumoniae), the MIC Spn52 was found to be 1 µg/mL (≈ 1.7 µM).

Consider `CCc1[nH]c2nc(Sc3cnc4nccnc4c3)nc(N3CCC(CN)C3)c2c1Cl.O=C(O)C(F)(F)F` (stereo not shown) [700,720], for which the MIC, SA in experiment [1] (S. aureus) worked out at 8 µg/mL. In experiment [2] (S. pneumoniae), this compound came in with an MIC Spn52 of 16 µg/mL.

`CCc1[nH]c2nc(Sc3cnc4cccnc4c3)nc(N3CCC(N)(C(=O)N[C@H](CO)C(=O)OC)C3)c2c1Cl` (stereo partly shown) [700,889]: the “MIC, SA” value in experiment [1] (S. aureus (SA), in µg/mL) was found to be 32. For the same compound, in experiment [2] (setting [3]), the “MIC Spn52” value worked out at 32.

In experiment [1] (S. aureus), `CCc1[nH]c2nc(Sc3cnc4nccnc4c3)nc(N3CCc4nc(N)sc4C3)c2c1Cl` [700,456] gave an MIC, SA of no more than 0.5 µg/mL. This compound registered an MIC Spn52 in experiment [2] (S. pneumoniae) of 4 µg/mL (≈ 8.06 µM).

In turn, `CCc1[nH]c2nc(Sc3cnc4nccnc4c3)nc(N3CC(N4CCCC4)C3)c2c1Cl.O=C(O)C(F)(F)F.O=C(O)C(F)(F)F` [700,604] gave an MIC, SA in experiment [1] (S. aureus) of 4 µg/mL. Also, the MIC Spn52 in experiment [2] (S. pneumoniae) stood at 8 µg/mL.

Turning to `CCc1[nH]c2nc(Oc3cccnc3)nc(Oc3cccnc3)c2c1Cl.O=C(O)C(F)(F)F` [700,410], the MIC, SA in experiment [1] (S. aureus) is 1 µg/mL. This compound also displayed an MIC Spn52 in experiment [2] (S. pneumoniae) of 4 µg/mL.

Turning to `CCc1[nH]c2nc(Sc3cnc4nccnc4c3)nc(N3CCN(CCO)CC3)c2c1Cl.O=C(O)C(F)(F)F` [700,445], the MIC, SA in experiment [1] (S. aureus) was found to be 16 µg/mL. In experiment [2] (S. pneumoniae), the MIC Spn52 worked out at 16 µg/mL.
